Entries after “also recorded” stand apart in the source; their conditions may differ.
Experiments:
Type in all cases: cell-based, human
GBM cells = assay: GBM cell death, trypan blue counting; conditions: for cell death caused by DGAT1 inhibition (rescue): co-treatment with DGAT1 inhibition (A-922500 20 μg/ml, 3 days), U251
GBM cells (U251) = assay: ROS detection with CellROX Deep Red; conditions: co-treatment (NAC 1 mM; ETO 6 μM) with DGAT1 inhibition
Procedure: (A, B) Transmission electron microscopy (TEM) analysis of the mitochondrial morphology in GBM cells (U251) treated with the DGAT1 inhibitor A-922500 (20 μg/ml) or DGAT2 inhibitor PF-06424439 (20 μg/ml) for 24 hr and shown in a or infected with shRNA-expressing lentivirus against DGAT1 for 48 hr and shown in b. Scale bar, 500 nm. Mitochondria are indicated by red arrows. Mitochondria length and loss of cristae (%) were quantified by ImageJ over 100 mitochondria in each group (mean±SEM). Statistical significance was determined by one-way ANOVA. * P<0.0001. (C, D) Representative fluorescence images of LDs (green) and mitochondria (red) in U251 cells treated with DGAT1 or DGAT2 inhibitor and shown in c or shRNA in (D) as in panels (A, B). […] The percentage of cells with tubular or fragmented mitochondria was quantified by ImageJ in more than 100 cells (mean±SEM). Statistical significance was determined by one-way ANOVA. * P<0.001. […] Lower panels show the quantification of relative basal and maximal OCR change (details please see Methods). […] Basal OCR was determined as OCR before oligomycin subtract OCR after rotenone addition, and maximal OCR was determined as OCR after FCCP subtract OCR after rotenone addition. Statistical significance was determined by one-way ANOVA. * P<0.0001. […] ROS were detected with CellROX Deep Red, and mitochondria were stained with MitoTracker Green. […]

liver cancer cells = assay: Liver cancer cell death with DGAT1 and DGAT2 inhibitors alone or in combination
Procedure: MHCC97L 6×10^4 12 well plate, treated at 24 hours with 1% FBS DMEM with DGAT1 and DGAT2 inhibitors. Picture taken on day 4.
HEPG2 6×10^4 12 well plate, treated at 24 hours with 1% FBS DMEM with DGAT1 and DGAT2 inhibitors. Picture taken on day 4.
HeG2 8×10^4 12 well plate, treated at 24 hours with 1% FBS DMEM with DGAT1 and DGAT2 inhibitors. Picture taken on day 4.
Huh7 4×10^4 12-well plate, treated at 24 hours with 1% FBS DMEM with DGAT1 and DGAT2 inhibitors. Picture taken on day 4.
Hep3B 6×10^4 12-well plate, treated at 24 hours with 1% FBS DMEM with DGAT1 and DGAT2 inhibitors. Picture taken on day 4.
Huh7 6×10^4 12-well plate, treated at 24 hours with 1% FBS DMEM with DGAT1 and DGAT2 inhibitors. Picture taken on day 4.

[1] = DGAT1 inhibitor in combination with DGAT2 inhibitor

Question: How did the “cell death caused by DGAT1 inhibition (rescue)” value (GBM cells) turn out when `Cc1cc(=O)oc2c(C=O)c(O)ccc12` [4μ8C] was run?
Answer: The value was “did not exert any rescue effects; also recorded: No rescue effects”.

Question: Which results are given for `CCOC(=O)[C@@]1(CCCCCCOc2ccc(Cl)cc2)CO1` [ETO]?
Answer: cell death caused by DGAT1 inhibition (rescue) (GBM cells): significantly reduced; ROS caused by DGAT1 inhibition (GBM cells (U251)): significantly reduced

Question: For `Cc1cccc(CC(=O)N2CCc3c2ccc(-c2cn(C)c4ncnc(N)c24)c3F)n1` [GSK2656157], which “cell death caused by DGAT1 inhibition (rescue)” value (GBM cells) is on record?
Answer: The value was “did not exert any rescue effects; also recorded: No rescue effects”.

Question: How did the “liver cancer cell death” value (liver cancer cells; [1]) turn out when `N#Cc1ccc(Oc2ccc(/C=C3\SC(=NCCc4ccccn4)NC3=O)cc2F)c(Br)c1` [JNJ DGAT2-A] was run?
Answer: The value was “effective to kill liver cancer cells”.

Question: And the “liver cancer cell death” value (liver cancer cells; each single inhibitor)?
Answer: The value was “no ability to induce liver cancer cell death”.

Question: Which results are given for `CC(=O)N[C@@H](CS)C(=O)O` [NAC, N-acetyl-cysteine]?
Answer: acylcarnitine-induced GBM cell death (GBM cells; NAC 1 mM with acylcarnitines 20 μM, 2 days): significantly reduced; cell death caused by DGAT1 inhibition (rescue) (GBM cells): significantly decreased; ROS caused by DGAT1 inhibition (GBM cells (U251)): significantly decreased

Question: For `O=C(O)C[C@H]1CC[C@H](c2ccc(-c3ccc(Nc4ccc(C(F)(F)F)nc4)cn3)cc2)CC1` [Pradigastat], which “liver cancer cell death” value (liver cancer cells; [1]) is on record?
Answer: Its value is “effective to kill liver cancer cells”.

Question: And the “liver cancer cell death” value (liver cancer cells; each single inhibitor)?
Answer: The value was “no ability to induce liver cancer cell death”.

Question: Which “cell death caused by DGAT1 inhibition (rescue)” value (GBM cells) does the source give for `CCCCCCC(=O)CCCCCC/C=C/C[C@@H](O)[C@H](O)[C@@](N)(CO)C(=O)O` [myriocin] here?
Answer: The value was “no rescue effects; also recorded: does not rescue cell death”.
